What was measured:
[1] = system: Calvarial cell; assay: Alkaline phosphatase (ALP) activity in osteoblasts (Calvarial cells); assay type: cell-based, mouse; conditions: 3 days; for activity at 1 µM: Mus musculus, 72 h, read-out: ALP activity (1 μM, % of Control) Calvarial cell
Experimental: (§1) Differentiation and activity of osteoblasts were indirectly evaluated by measuring an ALP activity having a close relationship with osteogenesis.
(§2) Osteoblasts (Calvarial cells) prepared in Experimental Example 1 and MC3T3-E1 cells (available from RIKEN Cell Bank, Japan) were collected in α-MEM supplemented with 10% FBS, followed by cell counting. The cells were dispensed into 24-well cultureware at a density of 2×10^4 cells/well. After culturing of the cells for 24 hours, the culture media were discarded and replaced with fresh media in which test compounds were diluted to a concentration of 1 μM (1 mL/well). In addition, the vehicle control group containing 0.1% DMSO was also treated. Under the conditions where the compounds were treated, the cells were cultured in a 5% CO2 […] at 37° for 3 days. When the experiment was terminated, the supernatant was removed and the cells were washed three times with cold phosphate buffer at 4°. 0.2% Triton X-100 was added to the washed cells which were then subjected to three cycles of freezing at −70° and thawing at room temperature for the complete lysis of cells. The cell extracts were pooled and centrifuged to collect the cell supernatant which was used for the measurement of ALP activity and proteins. The protein concentration was measured using a BCA assay kit (manufactured by Sigma-Aldrich). For the measurement of ALP activity, p-nitrophenylphosphate was added to the cell supernatant which was then incubated at 37° for 30 minutes, and the reaction was terminated with the addition of 50 μL of 0.2N sodium hydroxide. The standard curve was plotted at the absorbance of 405 nm using p-nitrophenol as a standard material and then the absorbance of test materials thus reacted was measured to determine the production amount of p-nitrophenol.
(§3) The ALP activity was calculated by dividing the amount of p-nitrophenol produced from each test material by the protein amount and the reaction time. Therefore, the unit of ALP activity was given in terms of p-nitrophenol/μg protein/min. The results are given in Table 3 where the ALP activity unit of each test material was given in terms of % change through the comparison between the individual test materials and the vehicle control group.

[2] = system: osteoclastogenesis (formation of multinucleated osteoclasts); assay: Osteoclastogenesis inhibition via co-culture system (bone marrow cells + osteoblasts, TRAP staining); assay type: cell-based, mouse; conditions: 7 days co-culture, vs vehicle control; for inhibition at 1 µM: Mus musculus, Osteoclast, 168 h; for Osteoclastogenesis inhibition (%): 1 μM
Experimental: Osteoclastogenesis inhibitory effects of the compounds of the present invention were evaluated via a co-culture system (Reference: Endocrinology 137(1996), 2187 to 2190, E. Jimi et al.). A specific experimental method is as follows.
1) Preparation of Bone Marrow Cells and Osteoblasts
Femur and tibia were aseptically dissected from 6 to 8-week-old male ddY mice to harvest bone marrow cells by a conventional method using a syringe. In brief, tissues were removed from the dissected bone, the bone ends were cut off with scissors, and the bone marrow was isolated by pushing a medium-containing syringe (23G) against the one end of the cut bone. The isolated bone marrow was subjected to repeated piston movement of a syringe such that single cells were obtained (Reference: Endocrinology 123(1988), 2600 to 2602, Takahashi et al.). After removal of red blood cells within the bone marrow, the bone marrow cells recovered by centrifugation were placed in an α-MEM supplemented with 10% fetal bovine serum (FBS), followed by counting of nucleated cells and then were immediately used for a co-culture system.
For the preparation of osteoblasts (Calvarial cells), the cranial bone were aseptically dissected from 1 to 2-day-old neonatal ICR mice and subjected to continuous reaction with a 0.2% collagenase solution to separate osteoblasts. The cell-suspended supernatant was centrifuged to recover osteoblasts which were grown to full confluence in an α-MEM supplemented with 10% FBS and then diluted to a desired cell density for use in the experiment.
2) Osteoclastogenesis Inhibition Experiment Via Co-Culture System
As the medium used for a co-culture system, a differentiation medium with the addition of differentiation factors 1α,25-dihydroxyvitamin D3 (10^−8M) and dexamethasone (10^−8M) to α-MEM supplemented with 10% FBS was used for the induction of osteoclastogenesis. First, the compounds of the present invention dissolved in dimethyl sulfoxide (DMSO) at a concentration of 1 mM were diluted to 2 μM using the above-mentioned differentiation medium. As a vehicle control group, 0.2% (v/v) DMSO was added to the medium. 100 μL/well of each medium was added to 96-well plates. In addition, the above prepared bone marrow cells and osteoblasts were plated onto 96-well plates at a density of 1×10^5 cells/50 μL/well and 3×10^3 cells/50 μL/well, respectively. The total volume/well was 200 μL and the final compound concentration was 1 μM. The control group was 0.1% (v/v) DMSO. The cells were cultured with exchange of the culture media with fresh media containing differentiation factors and test materials (materials containing the compounds of the present invention) at an interval of 2 to 3 days.
7 days after culturing of cells, the formation of multinucleated osteoclasts was confirmed by microscopic examination, the medium was removed from the wells and then the cells were fixed in a 10% phosphate-buffered formalin solution. The degree of formation of mature osteoclasts was measured taking advantage of the characteristics of osteoclasts showing a positive reaction to a tartrate-resistant acid phosphatase (TRAP) staining solution. The TRAP staining solution was prepared in a manner such that naphthol AS-MS phosphate as a substrate and a coloring agent (Fast Red Violet LB salt) were dissolved in N,N-dimethylformamide, and a 0.1N NaHCO3 buffer solution containing 50 mM of tartaric acid was added thereto. Among the TRAP-positive cells under a light microscope, multinucleated osteoclasts having 6 to 7 nuclei were regarded as mature osteoclasts.
The degree of inhibition of osteoclastogenesis was calculated according to the following equation 1. The results are summarized in Table 2 below (Experiments were carried out for 4 wells/experimental group (n=4), and the results are given in terms of mean±standard deviation) […]

[3] = system: Calvarial cell; assay: Cytotoxicity test (MTT) in osteoblasts (calvarial cells); conditions: 1 μM, 72 hours, vs vehicle control
Experimental: Drugs were diluted to a concentration of 2 μM in α-MEM culture media supplemented with 10% FBS. The vehicle control group was established to contain 0.2% DMSO. 100 μL/well of the diluted drugs were dispensed into 96-well plates to which osteoblasts (calvarial cells) prepared in Experimental Example 1 were then added at a density of 1.0×10^4 cells/100 μL/well. Here, the final compound concentration in the cell culture was 1 μM, and the vehicle control group contained 0.1% DMSO. The cells were cultured in a 5% CO2 inhibitorr at 37° for 72 hours. 25 μL of 3-(4,5-dimethyl-2-thiazolyl)-2,5-diphenyl-2H-tetrazolium bromide (MTT) dissolved in PBS (2 mg/mL) was added to each cell culture 4 hours before the end of culture. After completion of the reaction, the plates were centrifuged, the media were discarded, and 100 μL of formazan was added and dissolved in dimethyl sulfoxide (DMSO). Finally, the absorbance of the developed plates was measured at 540 nm. The cell viability was expressed as % concentration in comparison with the vehicle control group.

[4] = system: MC3T3-E1 cell; assay: Alkaline phosphatase (ALP) activity in MC3T3-E1 cells; assay type: cell-based; conditions: 3 days; for activity at 1 µM: Mus musculus, 72 h, read-out: ALP activity (1 μM, % of Control) MC3T3-E1 cell
Experimental: as §1, §2, §3

Molecule | activity at 1 µM [1] | inhibition at 1 µM [2] | Cell viability (%) Calvarial cell [3] | activity at 1 µM [4] | ALP activity (1 μM, % of Control) Calvarial cell [1] | ALP activity (1 μM, % of Control) MC3T3-E1 cell [4] | Osteoclastogenesis inhibition (%) [2]
CC(C)c1nccn1-c1ccc([N+](=O)[O-])c(Nc2ccc3[nH]ncc3c2)n1 [Compound 3, 2-(1H-indazol-5-yl)amino-6-(2-isopropylimidazol-1-yl)-3-nitropyridine] | 148% | 95% | 118% | 172% | – | – | –
2-(1H-indazol-5-yl)amino-6-(2-methyl-4,5-dihydroimidazol-1-yl)amino-3-nitropyridine [Compound 1] | – | – | – | – | 158 % of Control | 168 % of Control | –
O=[N+]([O-])c1ccc(N2CCN(CCO)CC2)nc1Nc1ccc2cn[nH]c2c1 [Compound 19, 2-(1H-indazol-6-yl)amino-6-[4-(2-hydroxyethyl)piperazin-1-yl]-3-nitropyridine] | 132% | 90% | 100% | – | – | – | –
CC(C)(C)Nc1ccc([N+](=O)[O-])c(Nc2ccc3[nH]ncc3c2)n1 [Compound 12, 2-(1H-indazol-5-yl)amino-6-(t-butylamino)-3-nitropyridine] | 152% | 99% | 109% | 136% | – | – | –
O=[N+]([O-])c1ccc(NCCN2CCOCC2)nc1Nc1ccc2[nH]ncc2c1 [Compound 37, 2-(1H-indazol-5-yl)amino-6-[(2-morpholino)ethylamino]-3-nitropyridine] | 126% | – | 94% | 141% | – | – | –
O=[N+]([O-])c1ccc(NCCCn2ccnc2)nc1Nc1ccc2cn[nH]c2c1 [Compound 49, 2-(1H-indazol-6-yl)amino-6-[(3-imidazol-1-yl)propylamino]-3-nitropyridine] | 129% | – | 95% | – | – | – | –
O=[N+]([O-])c1ccc(N2CCNCC2)nc1Nc1ccc2[nH]ncc2c1 [Compound 10, 2-(1H-indazol-5-yl)amino-6-(piperazin-1-yl)-3-nitropyridine] | 189% | 99% | 95% | 124% | – | – | –
O=[N+]([O-])c1ccc(NCCc2ccccn2)nc1Nc1ccc2cn[nH]c2c1 [Compound 14, 2-(1H-indazol-6-yl)amino-6-[(2-pyridyl)ethylamino]-3-nitropyridine] | 111% | 98% | 91% | 121% | – | – | –
CC(C)CNc1ccc([N+](=O)[O-])c(Nc2ccc3[nH]ncc3c2)n1 [Compound 8, 2-(1H-indazol-5-yl)amino-6-(isobutylamino)-3-nitropyridine] | 157% | 100% | 96% | 240% | – | – | –
CN1CCN(Nc2ccc([N+](=O)[O-])c(Nc3ccc4cn[nH]c4c3)n2)CC1 [Compound 23, 2-(1H-indazol-6-yl)amino-6-[(4-methylpiperazin-1-yl)amino]-3-nitropyridine] | 139% | 92% | 98% | – | – | – | –
CN(C)c1ccc([N+](=O)[O-])c(Nc2ccc3[nH]ncc3c2)n1 [Compound 25, 2-(1H-indazol-5-yl)amino-6-(N,N-dimethylamino)-3-nitropyridine] | 128% | 81% | 106% | – | – | – | –
CC(C)Nc1ccc([N+](=O)[O-])c(Nc2ccc3cn[nH]c3c2)n1 [Compound 33, 2-(1H-indazol-6-yl)amino-6-(isopropylamino)-3-nitropyridine] | 122% | – | 97% | – | – | – | –
CN1CCN(c2ccc([N+](=O)[O-])c(Nc3ccc4[nH]ncc4c3)n2)CC1 [Compound 39, 2-(1H-indazol-5-yl)amino-6-(4-methylpiperazin-1-yl)-3-nitropyridine] | 159% | 80% | 97% | – | – | – | –
O=[N+]([O-])c1ccc(NC(CO)CO)nc1Nc1ccc2[nH]ncc2c1 [Compound 35, 2-(1H-indazol-5-yl)amino-6-[(2-hydroxy-1-hydroxymethyl)-ethylamino]-3-nitropyridine] | – | – | 104% | – | – | 123 % of Control | –
CN(C)CCNc1ccc([N+](=O)[O-])c(Nc2ccc3cn[nH]c3c2)n1 [Compound 20, 2-(1H-indazol-6-yl)amino-6-[2-(N,N-dimethylamino)ethylamino]-3-nitropyridine] | 119% | 90% | – | – | – | – | –
O=[N+]([O-])c1ccc(NC2CC2)nc1Nc1ccc2[nH]ncc2c1 [Compound 34, 2-(1H-indazol-5-yl)amino-6-(cyclopropylamino)-3-nitropyridine] | 154% | 100% | 93% | – | – | – | –
O=[N+]([O-])c1ccc(NCc2ccccn2)nc1Nc1ccc2cn[nH]c2c1 [Compound 21, 2-(1H-indazol-6-yl)amino-6-[(2-pyridyl)methylamino]-3-nitropyridine] | 115% | – | 96% | – | – | – | –
COCC(C)Nc1ccc([N+](=O)[O-])c(Nc2ccc3[nH]ncc3c2)n1 (centres unmarked) [Compound 22, 2-(1H-indazol-5-yl)amino-6-[(1-methyl-2-methoxy)ethylamino]-3-nitropyridine] | – | – | 99% | – | 119 % of Control | – | 100%
O=[N+]([O-])c1ccc(NN2CCOCC2)nc1Nc1ccc2cn[nH]c2c1 [Compound 24, 2-(1H-indazol-6-yl)amino-6-[(4-morpholin-1-yl)amino]-3-nitropyridine] | – | – | 110% | – | 107 % of Control | – | 86%
O=[N+]([O-])c1ccc(NCc2ccncc2)nc1Nc1ccc2cn[nH]c2c1 [Compound 26, 2-(1H-indazol-6-yl)amino-6-[(4-pyridyl)methylamino]-3-nitropyridine] | 113% | 78% | 106% | – | – | – | –
